Here are results for 12 compounds from ChEMBL document CHEMBL1128840, “Synthesis of myo-inositol-1-phosphatase inhibitors in which the phosphate group is replaced by less polar groups” (Bioorg Med Chem Lett, 1995).

SMILES strings stand for the structures.

The target in one assay is T1, Inositol monophosphatase 1 (Bos taurus, UniProt P20456).
T1 sequence (P20456 whole entry): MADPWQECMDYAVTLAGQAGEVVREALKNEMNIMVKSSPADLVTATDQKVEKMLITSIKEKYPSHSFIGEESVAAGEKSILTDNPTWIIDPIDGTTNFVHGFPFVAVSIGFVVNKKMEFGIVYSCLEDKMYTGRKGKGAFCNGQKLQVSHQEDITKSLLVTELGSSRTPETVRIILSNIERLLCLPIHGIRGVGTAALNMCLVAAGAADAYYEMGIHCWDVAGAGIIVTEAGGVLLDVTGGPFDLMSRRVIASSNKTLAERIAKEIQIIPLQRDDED
Briefly: Compound was tested for inhibitory activity against myo-inositol-1-phosphatase; compound was not active at 300 uM.
On to `NC(=O)O[C@@H]1[C@H](O)C[C@@H](O)C[C@H]1OCCCCc1ccccc1O`, for which the IC50 result is “Not Active”.

A further assay deals with T1, Inositol monophosphatase 1. Briefly: Compound was tested for inhibitory activity against myo-inositol-1-phosphatase; weak inhibitor.
As to `O=C(O)CO[C@@H]1[C@H](O)C[C@@H](O)C[C@H]1OCCCCc1ccccc1O`, the IC50 is more than 300 µM.

The target in another assay is T1, Inositol monophosphatase 1. Briefly: Inhibitory activity against myo-inositol-1-phosphatase.
Consider `O=S(=O)(O)O[C@@H]1[C@H](O)C[C@@H](O)C[C@H]1OCCCCc1ccccc1O`, for which the 50% inhibitory concentration (IC50) was found to be 90 µM. This counts as double-digit micromolar.

`O=P(O)(O)O[C@@H]1[C@H](O)C[C@@H](O)C[C@H]1OCCCc1ccccc1` registered a half-maximal inhibitory concentration (IC50) of 0.8 µM.

For `CC(C)OP(=O)(O)O[C@@H]1[C@H](O)C[C@@H](O)C[C@H]1OCCCCc1ccccc1O`, the IC50 was determined as 50 µM. This IC50 is about 62-fold higher than that of the compound before.

On to `O=C1CCCCC1CCCCO[C@@H]1C[C@H](O)C[C@@H](O)[C@H]1OS(=O)(=O)O` (some centres not stated), for which inhibition was half-maximal at 100 µM (IC50).

`O=P(O)(O)O[C@@H]1[C@H](O)C[C@@H](O)C[C@H]1OCCCCc1ccccc1O` returned an IC50 of 0.3 µM.

`CC(=O)NS(=O)(=O)O[C@@H]1[C@H](O)C[C@@H](O)C[C@H]1OCCCCC1CCCCC1=O` (some centres not stated) yielded a concentration for half-maximal inhibition (IC50) of more than 300 µM.

As to `NS(=O)(=O)O[C@@H]1[C@H](O)C[C@@H](O)C[C@H]1OCCCCC1CCCCC1=O` (some centres not stated), the IC50 was 200 µM.

The compound `NS(=O)(=O)O[C@@H]1[C@H](O)C[C@@H](O)C[C@H]1OCCCCc1ccccc1O` had an IC50 of more than 300 µM.

In turn, `CP(C)(=O)O[C@@H]1[C@H](O)C[C@@H](O)C[C@H]1OCCCCc1ccccc1O` registered a concentration for half-maximal inhibition (IC50) of more than 300 µM.

Regarding `CC(=O)NS(=O)(=O)O[C@@H]1[C@H](O)C[C@@H](O)C[C@H]1OCCCCc1ccccc1O`, the IC50 is more than 300 µM.
